Laboratory results from US6953832B2, “Dental materials based on polyfunctional amides” (Ivoclar Vivadent AG, priority 2001, dated 2005).

Assay: Hydrolysis stability of monomer in water/ethanol/phosphoric acid (1H-NMR)
Assay type: physicochemical
Text: A major advantage of the amides according to the invention is to be seen in their hydrolysis stability. Aqueous solutions of the amides are thus also storage-stable in the presence of acidic compounds. As a linking of the monomer components via covalent C—C single bonds takes place on polymerization, this also applies to the corresponding polymers.

## Glycerine dimethacrylate
20 wt.-% solution in 1:1:1 water, ethanol and 10% phosphoric acid, 37° C., 4 weeks, 1H-NMR
  Hydrolysis stability: −
Aqueous solution, in the presence of phosphoric acid / acidic compounds
  Hydrolysis stability in the presence of acid (in words): completely split to form glycerine and methacrylic acid
